Reference: PMC7287781 (Molecules, 2020)

What was measured:
PDGFR-β = biological target: T1, PDGFR-β (Homo sapiens, UniProt P09619); experiment: ELISA tyrosine kinase activity assay, single concentration; assay type: biochemical; settings: read-out: Inhibition Rate(%) / PDGFR-β
T1 construct: gene PDGFRB; purified tyrosine kinase protein

Flt-1 = biological target: T2, Flt-1 (Homo sapiens, UniProt P17948); experiment: as above; assay type: biochemical; settings: read-out: Inhibition Rate(%) / Flt-1
T2 construct: gene FLT1; purified tyrosine kinase protein
T2 sequence (P17948 27-1338): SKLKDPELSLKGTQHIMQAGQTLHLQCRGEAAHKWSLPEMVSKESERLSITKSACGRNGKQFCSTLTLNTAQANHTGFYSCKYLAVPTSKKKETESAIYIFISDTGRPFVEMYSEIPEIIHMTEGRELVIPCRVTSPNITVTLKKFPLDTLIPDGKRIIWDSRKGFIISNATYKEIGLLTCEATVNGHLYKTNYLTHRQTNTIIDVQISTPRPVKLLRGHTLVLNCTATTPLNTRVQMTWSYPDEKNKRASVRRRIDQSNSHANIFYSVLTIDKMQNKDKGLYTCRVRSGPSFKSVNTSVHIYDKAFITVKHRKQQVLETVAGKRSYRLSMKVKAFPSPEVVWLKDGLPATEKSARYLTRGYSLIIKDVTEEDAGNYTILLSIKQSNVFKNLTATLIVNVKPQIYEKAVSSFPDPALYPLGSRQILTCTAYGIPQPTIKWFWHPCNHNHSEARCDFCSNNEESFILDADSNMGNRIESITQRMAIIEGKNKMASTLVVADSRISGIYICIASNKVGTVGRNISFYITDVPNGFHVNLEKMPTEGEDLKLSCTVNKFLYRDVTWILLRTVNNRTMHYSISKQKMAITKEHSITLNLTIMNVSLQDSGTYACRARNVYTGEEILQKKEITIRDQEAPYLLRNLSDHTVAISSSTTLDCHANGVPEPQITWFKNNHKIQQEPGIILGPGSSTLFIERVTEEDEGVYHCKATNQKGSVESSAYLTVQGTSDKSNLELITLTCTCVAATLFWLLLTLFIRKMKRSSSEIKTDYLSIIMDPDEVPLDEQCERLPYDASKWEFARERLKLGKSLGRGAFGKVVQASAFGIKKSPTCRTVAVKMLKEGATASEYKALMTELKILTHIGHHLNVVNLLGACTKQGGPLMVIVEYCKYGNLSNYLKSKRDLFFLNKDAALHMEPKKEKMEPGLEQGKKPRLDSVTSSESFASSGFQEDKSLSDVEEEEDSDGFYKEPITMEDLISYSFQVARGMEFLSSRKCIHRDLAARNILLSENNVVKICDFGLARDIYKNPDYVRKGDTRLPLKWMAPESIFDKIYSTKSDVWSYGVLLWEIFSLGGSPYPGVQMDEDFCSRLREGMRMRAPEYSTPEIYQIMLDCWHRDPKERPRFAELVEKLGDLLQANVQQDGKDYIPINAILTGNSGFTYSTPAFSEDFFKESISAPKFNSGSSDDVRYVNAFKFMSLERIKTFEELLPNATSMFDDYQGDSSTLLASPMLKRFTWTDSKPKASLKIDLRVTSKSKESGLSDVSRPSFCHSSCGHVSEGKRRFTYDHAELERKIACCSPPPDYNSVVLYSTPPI

PDGFR-α = biological target: T3, PDGFR-α (Homo sapiens, UniProt P16234); experiment: as above; assay type: biochemical; settings: read-out: Inhibition Rate(%) / PDGFR-α
T3 construct: gene PDGFRA; purified tyrosine kinase protein
T3 sequence (P16234 24-1089): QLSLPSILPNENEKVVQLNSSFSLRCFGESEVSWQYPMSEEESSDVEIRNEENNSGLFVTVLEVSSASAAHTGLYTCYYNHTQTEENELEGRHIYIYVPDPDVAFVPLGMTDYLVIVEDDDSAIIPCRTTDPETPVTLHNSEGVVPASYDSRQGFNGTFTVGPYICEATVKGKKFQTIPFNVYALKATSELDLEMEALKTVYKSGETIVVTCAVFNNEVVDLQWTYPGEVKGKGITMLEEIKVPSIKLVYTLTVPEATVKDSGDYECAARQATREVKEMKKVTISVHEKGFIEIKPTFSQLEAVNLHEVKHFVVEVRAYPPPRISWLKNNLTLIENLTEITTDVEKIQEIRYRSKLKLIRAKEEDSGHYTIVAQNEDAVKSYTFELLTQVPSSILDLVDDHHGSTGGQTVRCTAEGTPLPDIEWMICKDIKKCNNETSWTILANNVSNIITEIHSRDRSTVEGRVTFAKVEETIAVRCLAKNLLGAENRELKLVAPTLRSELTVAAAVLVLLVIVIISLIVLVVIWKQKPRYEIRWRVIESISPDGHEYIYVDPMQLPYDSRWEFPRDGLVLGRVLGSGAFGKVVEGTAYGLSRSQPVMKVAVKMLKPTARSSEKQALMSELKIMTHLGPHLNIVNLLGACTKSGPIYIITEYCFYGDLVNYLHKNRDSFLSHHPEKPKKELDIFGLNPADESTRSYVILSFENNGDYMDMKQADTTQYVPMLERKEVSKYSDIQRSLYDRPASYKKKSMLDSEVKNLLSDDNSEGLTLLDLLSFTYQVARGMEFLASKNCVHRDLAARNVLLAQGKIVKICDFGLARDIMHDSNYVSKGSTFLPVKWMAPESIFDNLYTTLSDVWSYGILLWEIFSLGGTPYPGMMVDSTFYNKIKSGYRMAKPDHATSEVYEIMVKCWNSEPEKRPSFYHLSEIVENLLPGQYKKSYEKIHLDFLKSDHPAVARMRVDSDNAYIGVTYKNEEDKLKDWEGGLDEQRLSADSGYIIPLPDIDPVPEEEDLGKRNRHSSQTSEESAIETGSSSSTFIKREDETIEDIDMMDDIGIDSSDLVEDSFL

STAT3 = biological target: T4, STAT3 (Homo sapiens, UniProt P40763); experiment: fluorescence polarization competition with 5-carboxyfluorescein-GpYLPQTV-NH2; […], […], […] inhibition at […]; assay type: binding
T4 construct: STAT3 protein (ab43618, Abcam)
T4 sequence (P40763 2-770): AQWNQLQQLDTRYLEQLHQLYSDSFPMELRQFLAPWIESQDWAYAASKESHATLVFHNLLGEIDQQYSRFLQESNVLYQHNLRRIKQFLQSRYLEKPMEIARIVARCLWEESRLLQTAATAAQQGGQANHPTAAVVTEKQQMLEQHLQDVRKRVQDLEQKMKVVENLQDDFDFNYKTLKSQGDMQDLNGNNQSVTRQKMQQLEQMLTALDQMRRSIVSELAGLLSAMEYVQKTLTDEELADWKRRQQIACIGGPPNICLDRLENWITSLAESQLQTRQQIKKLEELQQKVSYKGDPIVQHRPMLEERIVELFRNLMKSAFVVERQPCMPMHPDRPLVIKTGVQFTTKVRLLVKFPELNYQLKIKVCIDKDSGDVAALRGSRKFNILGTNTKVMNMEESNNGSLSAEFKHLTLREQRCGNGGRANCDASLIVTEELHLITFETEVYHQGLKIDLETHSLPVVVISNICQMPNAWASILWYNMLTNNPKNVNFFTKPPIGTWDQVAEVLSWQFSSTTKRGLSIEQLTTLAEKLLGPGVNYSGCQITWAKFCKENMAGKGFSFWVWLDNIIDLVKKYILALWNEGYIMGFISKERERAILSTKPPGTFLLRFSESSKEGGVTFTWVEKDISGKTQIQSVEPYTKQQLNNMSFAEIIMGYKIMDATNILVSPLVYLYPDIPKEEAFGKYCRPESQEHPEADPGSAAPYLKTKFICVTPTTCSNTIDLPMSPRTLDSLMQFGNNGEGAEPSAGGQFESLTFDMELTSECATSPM

T1 sequence (P09619 33-1106): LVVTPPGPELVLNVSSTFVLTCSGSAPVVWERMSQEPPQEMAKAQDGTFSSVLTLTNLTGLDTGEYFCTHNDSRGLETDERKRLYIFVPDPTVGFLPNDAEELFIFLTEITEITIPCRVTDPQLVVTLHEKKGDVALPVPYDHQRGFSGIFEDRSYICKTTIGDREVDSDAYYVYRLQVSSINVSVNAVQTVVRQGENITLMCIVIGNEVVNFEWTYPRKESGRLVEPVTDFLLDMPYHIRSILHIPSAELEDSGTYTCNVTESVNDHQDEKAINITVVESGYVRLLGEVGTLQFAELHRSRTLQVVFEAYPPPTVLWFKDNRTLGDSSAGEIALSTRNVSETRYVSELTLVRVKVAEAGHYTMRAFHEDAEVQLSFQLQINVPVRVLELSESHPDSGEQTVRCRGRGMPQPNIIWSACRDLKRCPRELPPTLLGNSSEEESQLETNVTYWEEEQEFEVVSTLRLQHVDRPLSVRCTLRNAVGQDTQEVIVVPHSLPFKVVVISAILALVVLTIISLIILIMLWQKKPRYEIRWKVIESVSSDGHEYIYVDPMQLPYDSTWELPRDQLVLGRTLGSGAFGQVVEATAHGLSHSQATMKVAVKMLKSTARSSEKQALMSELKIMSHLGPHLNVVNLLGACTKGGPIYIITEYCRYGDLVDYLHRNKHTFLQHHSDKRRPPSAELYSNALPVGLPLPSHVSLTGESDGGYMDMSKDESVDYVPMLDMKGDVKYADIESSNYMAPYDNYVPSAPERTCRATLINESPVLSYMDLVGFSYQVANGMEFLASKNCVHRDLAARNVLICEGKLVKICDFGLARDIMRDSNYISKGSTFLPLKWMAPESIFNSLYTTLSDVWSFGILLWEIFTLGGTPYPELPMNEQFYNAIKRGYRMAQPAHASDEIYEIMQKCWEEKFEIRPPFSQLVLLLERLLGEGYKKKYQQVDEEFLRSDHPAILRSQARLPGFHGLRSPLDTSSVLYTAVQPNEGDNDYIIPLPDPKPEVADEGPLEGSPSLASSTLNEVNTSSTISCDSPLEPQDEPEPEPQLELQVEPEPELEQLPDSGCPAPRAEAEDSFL

Compound	inhibition at 1 µM (PDGFR-β) [%]	inhibition at 1 µM (Flt-1) [%]	inhibition at 1 µM (PDGFR-α) [%]	% inhibition at 2 μM (STAT3)
CCN(CC)CCNC(=O)c1c(C)[nH]c(/C=C2\C(=O)Nc3ccc(F)cc32)c1C [Su11248]	80.2	66.6	68.4	
C/C=C\C(=O)O[C@@H]1C[C@H]2O[C@@H]3C=C(C)C(=O)C[C@]3(C)[C@]1(C)[C@]21CO1 [TCN, trichothecin]				53.9
